Consider one molecule from patent US20190292215A1, “COMPOUNDS, COMPOSITIONS, AND METHODS FOR THE TREATMENT OF DISEASE” (Sperovie Biosciences, Inc., priority 2016, published 2019).

This experiment concerns IFN-β. As to the kind of experiment: Semi-quantitative RT-PCR of IFN-β gene expression in THP1-Dual / KO STING cells. Particulars: THP1-WT, treated 5 or 22 hrs; Cmd 1 alone (no lipo). The class given is cell-based.

Molecules are shown by their SMILES.

Experimental: RNA samples were prepared using Qiagen RNeasy kit and the expression of IFNβ, IRF7 and housekeeper gene β-actin was determined using semi-quantitative reverse transcription (RT)-PCR (started with equal amounts of RNA). PCR products were subjected to 1% agarose gel electrophoresis.
Lipofectamine 2000 also activates IFN-β gene, but cells were treated with Cmd 1 alone (no lipo). DMSO is the negative control.

`Nc1nc2c(ncn2[C@@H]2O[C@@H]3COP(=O)(O)O[C@H]4[C@@H](O)[C@H](n5cnc6c(N)ncnc65)O[C@@H]4COP(=O)(O)O[C@@H]2[C@@H]3O)c(=O)[nH]1` [2′3′-cGAMP]: the “Time to induce IFN-β gene expression” value is no more than 5 h.
